According to patent US10919896B2, “Preparation and uses of pyrimidinone derivatives” (Cancer Research Technology Limited, priority 2016, dated 2021):

Key:
[1] = test system: Cdc7 (pS53MCM2 levels in HCT116 cells); assay: Cdc7 Cell Pharmacodynamics Assay Method 1: pS53MCM2 levels in HCT116 cells, 6 hours; assay type: cell-based; details: Homo sapiens, HCT-116, 6 h, read-out: Biomarker Method 1 (pEC50) (converted)
From the text: This protocol describes a method to investigate the inhibition of Cdc7 activity of compounds by measuring pS53MCM2 levels in cells after treatment.
• HCT116 cells (wild type P53 positive) • McCoys 5A media (PAA Laboratories Ltd, E15-022) • 10% FCS (Sera Laboratories International Ltd, EU000F Batch:108005) • 100× L-Glutamine (Invitrogen, 25030-024) • D-PBS without CaCl2 and MgCl2 (Invitrogen, ref 14190-094) • Trypsin/EDTA (Invitrogen 25300-054) • 2% BSA in PBS • Cell Extraction Buffer (Invitrogen FNN0011) • Protease inhibitor cocktail (Sigma P-2714) • PMSF 0.3M stock in DMSO (Sigma P7626) • Antibody-rabbit pMCM2 Ser53 (Bethyl #A300-756A) • Antibody-goat MCM2 (Bethyl #A300-122A) • Antibody-goat Anti Rabbit IgG HRP (Perbio Science UK Ltd 31462) • 1×PBS • FACE Wash buffer (0.02% Triton X100 in 1×PBS) • SuperSignal ELISA Pico Chemiluminescent Substrate (Perbio Science UK Ltd 37070) Method • 72 hours prior to the start of the experiment plate 1×10^6 HCT 116 cells in a 150 cm^2 flask in complete McCoys 5A media (+10% FCS+1× L-glutamine). • Plate 20,000 HCT116 cells per well in standard TC treated 96 well plate in 100 μL complete McCoys 5A media. • Allow cells to settle overnight in incubator set at 37° C. and 5% CO2. • Remove intermediate plate from fridge and place at 37° C. overnight to allow to equilibrate. • Cell treatment: cell assay plate 100 μL; daughter to cell transfer volume 3.33 μL; daughter volume 45 μL; mother plate to daughter volume 5 μL. • Once all cells are treated remove the cells to the incubator and incubate for 6 hours. • Dilute the capture antibody (total MCM2#A300-122A) 1 in 250 in the required volume of PBS (5 mL per assay plate) and add 50 μL to each well of a Hybond plate excluding wells 12E to 12H. In these wells add 50 μL PBS. Seal the plate and incubate at room temperature for a minimum of 2 hours. • Defrost aliquot of Invitrogen Cell Extraction Buffer (FNN0011) on ice and supplement with appropriate volume of both Sigma protease inhibitor cocktail (P-2714) and PMSF (final conc 1 mM from a 1 M stock in DMSO). • After the 6 hour cell treatment time tap out the media from the assay plates and place them in the −70° C. freezer for at least 5 minutes. • Remove plates from freezer and add 20 μL of ice cold complete lysis buffer on ice. Incubate cells for 30 minutes at 4° C. • Add 80 μL per well 2% BSA. • Transfer 80 μL from the lysis plate to the same wells in the capture/ELISA plate. Cover with plate seal and incubate plates overnight at 4° C. • Wash plates with PBS, remove any residual remaining liquid and add 50 μL per well of pMCM2 Ser53 antibody (#A300-756A) diluted 1 in 100 in 2% BSA. Cover plate and incubate at room temperature for 2 hours with gentle shaking. • Wash plates with PBS, remove any residual remaining liquid and Incubate with 50 μL goat anti rabbit antibody (1 in 800 dilution in 2% BSA) for 1 hour at room temperature. • Wash plates with PBS, remove any residual remaining liquid and add 50 μL mixed SuperSignal Pico substrate. • Incubate each plate for 5 minutes at room temperature shielding the plates from direct light (with a cover plate). Read plates with the luminescent detection. Method 2A and 2B

Cdc7/ASK [2] = molecular target: T1, Cdc7/ASK (Homo sapiens, UniProt O00311); assay: Cdc7 Biochemical Assay Method 2: 384 well mobility shift assay (EZ Reader II), MCM2 peptide substrate; design: purchased; details: 12.5 μM ATP, read-out: Biochemical Method 2 (pIC50) (converted)
T1 sequence (O00311 whole entry): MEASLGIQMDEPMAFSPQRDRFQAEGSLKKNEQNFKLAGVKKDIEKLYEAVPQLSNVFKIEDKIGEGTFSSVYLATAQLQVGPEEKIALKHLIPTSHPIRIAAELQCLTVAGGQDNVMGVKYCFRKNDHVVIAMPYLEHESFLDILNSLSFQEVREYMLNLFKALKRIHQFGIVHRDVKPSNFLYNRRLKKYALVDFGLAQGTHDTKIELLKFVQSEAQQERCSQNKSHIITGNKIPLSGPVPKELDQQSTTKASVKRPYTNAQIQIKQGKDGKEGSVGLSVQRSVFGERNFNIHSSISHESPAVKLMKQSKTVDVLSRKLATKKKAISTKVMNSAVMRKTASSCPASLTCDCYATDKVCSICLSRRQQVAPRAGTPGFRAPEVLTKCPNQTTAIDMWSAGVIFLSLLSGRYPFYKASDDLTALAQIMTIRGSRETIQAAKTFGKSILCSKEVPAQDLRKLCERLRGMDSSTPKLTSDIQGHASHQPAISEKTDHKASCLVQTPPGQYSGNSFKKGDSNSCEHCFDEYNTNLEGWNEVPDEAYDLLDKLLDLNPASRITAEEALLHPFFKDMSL
T1 sequence (Q9UBU7 whole entry partner): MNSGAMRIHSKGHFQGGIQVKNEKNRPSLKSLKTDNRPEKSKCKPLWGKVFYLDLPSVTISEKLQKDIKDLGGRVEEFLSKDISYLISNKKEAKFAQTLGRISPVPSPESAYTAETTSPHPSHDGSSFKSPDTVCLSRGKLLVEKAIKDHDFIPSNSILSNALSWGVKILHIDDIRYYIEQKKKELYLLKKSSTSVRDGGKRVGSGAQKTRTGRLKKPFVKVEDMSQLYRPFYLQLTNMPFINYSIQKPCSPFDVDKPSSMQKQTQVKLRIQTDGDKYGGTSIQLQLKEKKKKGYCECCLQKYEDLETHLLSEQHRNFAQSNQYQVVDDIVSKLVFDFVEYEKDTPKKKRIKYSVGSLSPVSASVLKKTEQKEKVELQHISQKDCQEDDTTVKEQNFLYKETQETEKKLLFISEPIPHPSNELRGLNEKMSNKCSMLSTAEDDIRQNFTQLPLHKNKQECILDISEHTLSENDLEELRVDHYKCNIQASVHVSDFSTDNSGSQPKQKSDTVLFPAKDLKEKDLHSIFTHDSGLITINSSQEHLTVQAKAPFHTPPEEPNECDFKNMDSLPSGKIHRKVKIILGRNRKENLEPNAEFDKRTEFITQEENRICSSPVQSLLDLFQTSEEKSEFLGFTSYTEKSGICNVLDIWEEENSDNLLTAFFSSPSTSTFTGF
Method: This protocol describes a method for assaying Cdc7/ASK for activity. The assay is a 384 well mobility shift assay (MSA) run on the EZ Reader II microfluidics plate reader (Caliper LifeSciences), utilising a peptide substrate based on the MCM2 sequence. The assay technology is based on the change in mobility between the peptide substrate and the phosphorylated product. A 10 nL volume of the reaction mixture is sipped onto the microfluidic chip where the substrate and product are separated by electrophoresis and detected via laser-induced fluorescence (488 nm LED). The reaction can be monitored in real-time for kinetic experiments or as an end-point for IC50 determinations. The % conversion of substrate is calculated from peak heights of product (P) and substrate (S) peptides (% conversion=P/(P+S)*100).
• 10× Assay Buffer: 200 mM HEPES pH 8, 100 mM MgCl2, 0.1% v/v Triton X-100 and 15 mM DTT. Prepare fresh buffer from 1 M HEPES pH 8, 1 M MgCl2, 1 M DTT and 10% Triton x-100 stocks for each experiment. • Cdc7/ASK is purchased from commercial suppliers and used in the assay at a final assay concentration of 0.847 ng/μL or 9.2 nM. • MCM2 peptide is purchased from commercial suppliers and used in the assay at a final assay concentration of 2.5 μM. • ATP used in the assay at a final assay concentration of 12.5 μM. Methods • 1. Prepare intermediate (daughter) compound plate by transferring 2 μL of compound from the mother plate to 18 μL of 33.3% DMSO in a clear polypropylene plate. • 2. Dry-spot 1 μL of compound from the intermediate compound plate to empty assay plate. • 3. Add 5 μL of 1.694 ng/μL CDC7/ASK working solution to ‘test’ and ‘control’ wells or […] of 2× Assay Buffer to ‘blank’ wells. • 4. Add 4 μL 2.5 μM peptide/12.5 μM ATP working solution to all wells. • 5. Incubate at 37° C. for 1 hour then remove from the incubator and leave for a further 1 hour at room temperature. • 6. Place plate into an EZReader II to read.
Percentage inhibition values were calculated from % of substrate conversion values, using the no compound (DMSO) and no enzyme control values as 0% and 100% inhibition, respectively. IC50 determination was performed with ExcelFit software (IDBS) using curve fit 205. Z′ factors were determined for each plate tested and were all above 0.5.

Cdc7/ASK [3] = molecular target: T1, Cdc7/ASK; assay: Cdc7 Biochemical Assay Method 1: 384 well ELISA, whole protein substrate MCM2, antibody against Phospho MCM2 (S53); design: purchased; details: 2 μM ATP, read-out: Biochemical Method 1 (pIC50) (converted)
Summary of the method: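 MCM2 protein substrate was coated on nickel-chelate plates, then Cdc7/ASK was added with 2 μM ATP in 50 mM Tris-HCl pH 8.5, 10 mM MgCl2, 1 mM DTT, 4% DMSO, 90 min at room temperature. Phospho-MCM2 (S53) was detected by ELISA with an AP secondary and PNPP absorbance. IC50 was derived from % inhibition versus no-compound and no-enzyme controls.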

Cdc7/Dbf4 = Cdc7/Dbf4 (Homo sapiens, UniProt O00311); assay: Cdc7 Biochemical Assay Method 3: Cdc7/Dbf4 Enzyme TR-FRET Assay measuring pS40MCM2; details: 1 μM ATP, read-out: Biochemical Method 3 (pIC50) (converted)
Chain of Cdc7/Dbf4 (O00311 whole entry): as the sequence (O00311 whole entry) above
Chain of Cdc7/Dbf4 (Q9UBU7 whole entry partner): as the sequence (Q9UBU7 whole entry partner) above
Summary of the method: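 2.5 nM Cdc7/Dbf4 incubated with 100 nM biotinylated MCM2-derived peptide and 1 μM ATP, 120 minutes at 25° C. Phospho-S40 detected by TR-FRET using anti-pS40 Mcm2 antibody, terbium anti-rabbit secondary and streptavidin-Alexa Fluor488.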

[4] = test system: Cdc7 (pS40MCM2 levels in HCT116 cells); assay: Cdc7 Cell Pharmacodynamics Assay Method 2A: pS40MCM2 levels in HCT116 cells, 6 hours; assay type: cell-based; details: Homo sapiens, HCT-116, read-out: Biomarker Method 2A (pEC50) (converted)
From the text: This protocol describes a method to investigate the inhibition of Cdc7 activity by measuring pS40MCM2 levels in cells, after treatment with compounds.
• HCT116 cells (ATCC, #CCL-247) • McCoys 5A with L-glutamine (Cellgro, #10-050-CV) • 10% FCS (Cellgro, #35-010-CV) • D-PBS without CaCl2 and MgCl2 (Cellgro, #21-031-CV) • Trypsin/EDTA (Cellgro, #25-052-CL) • BSA (Calbiochem, 126593) • Cell Extraction Buffer (Invitrogen FNN0011) • Protease inhibitor cocktail (Sigma P-2714) • PMSF 0.3M stock in DMSO (Sigma P7626) • Antibody-rabbit pMCM2 Ser40 (Abcam, AB133243) • Antibody-goat MCM2 (Bethyl #A300-122A) • Antibody-goat Anti Rabbit IgG HRP (Thermo, 31462) • SuperSignal ELISA Pico Chemiluminescent Substrate (Perbio Science UK Ltd 37069) • 10×PBS (Growcells, MRGF-6236) • Triton X100 (Sigma, P-T8787) • DMSO (Fisher, D128-1) • 2-Propanol (J. T. Baker, 9095-03) Method • Seed 1×10^6 HCT116 cells into each of two 175 cm^2 flask containing 30 mL Cell Growth Media and incubate at 37° C., 5% CO2 for 3 days. • Harvest the cells from one T175 cm^2 flask and count. • Dilute with Cell Growth Media to a cell density of 2×10^5. Dispense 100 μL to each well (20,000 HCT116 cells/well) of TC treated 96-well plate(s). • Allow cells to settle overnight in incubator set at 37° C. and 5% CO2. • Cell treatment: Transfer 0.25 μL/well from the compound plate to the wells of the cell plate(s). This is a 1:400 dilution of compound in the assay. • Once all cells are treated place the cells back to the incubator and incubate for either 6 hours (Method 2A) or 18 hours (Method 2B). • Dilute the capture antibody (total MCM2#A300-122A) 1 in 250 in the required volume of PBS (5 mL per assay plate, plus 5 mL for dead volume) and add 50 μL to each well of a Hybond plate except wells A12 & B12. Seal the plate and incubate at room temperature for a minimum of 2 hours. • Defrost aliquot of Invitrogen Cell Extraction Buffer (FNN0011) on ice and supplement with appropriate volume of both Sigma protease inhibitor cocktail (P-2714) and PMSF (final conc 1 mM from a 1 M stock in DMSO). • After the 6 hour or 18 hour cell treatment time, tap out the media from the assay plates and place them in the −70° C. freezer for at least 5 minutes. • Flick out the remaining liquid in the previously prepared capture Ab plate(s) and add 200 μL 2% BSA per well. Incubate for 1 hour at room temperature. • Remove plates from freezer and add 20 μL of ice cold complete lysis buffer. Incubate cells for 30 minutes at 4° C. • Add 30 μL per well 2% BSA • At the end of the 1 hour incubation, wash the Capture/ELISA plate(s) with Wash Buffer on the BioTek plate washer. • Transfer 40 μL per well of the lysis plate(s) to the same wells in the Capture/ELISA plate. Incubate cells overnight at 4° C. • At the end of the overnight incubation, wash the ELISA plate(s) with Wash Buffer on BioTek plate washer. • Prepare Detection Antibody Buffer and dispense 50 μL to all wells of ELISA plate(s) except wells G1 & H1. Cover plate and incubate at room temperature for 2 hours with gentle shaking. • At the end of the 2 hour incubation, wash the ELISA plate(s) with Wash Buffer on the BioTek plate washer. • Prepare the Conjugated Antibody Buffer and dispense 50 μL to all wells of ELISA plate(s). • Cover the plate and incubate at room temperature for 1 hour with gentle shaking. • At the end of the 1 hour incubation, wash the ELISA plate(s) with Wash Buffer on the BioTek plate washer. • Prepare Substrate Buffer and dispense 50 μL to all wells of ELISA plate(s). • Incubate for a minimum of 10 minutes and read plates on the EnVision 2100 Multilabel Reader (Mirror: Luminescence (404) & Luminescence 700 (212); Measurement Height: 6.5 mm; Measurement Time: 0.2 s). Method 3

[5] = test system: Cdc7 (pS40MCM2 levels in HCT116 cells); assay: Cdc7 Cell Pharmacodynamics Assay Method 2B: pS40MCM2 levels in HCT116 cells, 18 hours; assay type: cell-based; details: Homo sapiens, HCT-116, read-out: Biomarker Method 2B (pEC50) (converted)
Summary of the method: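 HCT116 cells seeded at 20,000/well, settled overnight, then treated with compound (1:400 dilution from compound plate) for 6 h (Method 2A) or 18 h (Method 2B) at 37° C. Lysates captured on total-MCM2 antibody plates; pS40 MCM2 detected with rabbit anti-pMCM2 Ser40, HRP secondary and chemiluminescent substrate.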

SMILES	IC50 (Cdc7/ASK [2])	other results
CC(C)[C@H]1CN(c2nc(-c3ccncc3)[nH]c(=O)c2Br)CCN1 [Compound 408, 5-bromo-4-[(3S)-3-isopropylpiperazin-1-yl]-2-(4-pyridyl)-1H-pyrimidin-6-one]	5.25 nM	EC50 [1]: 257 nM
CC[C@H]1CNCCN1c1nc(-c2ccncc2)[nH]c(=O)c1Cl [Compound 369]	5.5 nM	EC50 [1]: 891 nM
NC[C@@H]1CCN(c2nc(-c3ccnc(F)c3)[nH]c(=O)c2Cl)C1 [Compound 318]	14.1 nM	
CC(F)(F)[C@H]1CN(c2nc(-c3ccncc3)[nH]c(=O)c2Cl)CCN1 [Compound 307]	2.29 nM	IC50 (Cdc7/ASK [3]): 3.63 nM
CC(C)[C@H]1CN(c2nc(-c3ccncc3)[nH]c(=O)c2C#N)CCN1 [Compound 409, 4-[(3S)-3-isopropylpiperazin-1-yl]-6-oxo-2-(4-pyridyl)-1H-pyrimidine-5-carbonitrile]	11.5 nM	
CC(C)CC1COCCN1c1nc(-c2ccncc2)[nH]c(=O)c1Cl (stereo not drawn) [Compound 367]	295 nM	
CC(C)(C)[C@H]1CN(c2nc(-c3ccncc3)[nH]c(=O)c2C#N)CCN1 [Compound 411, 4-[(3S)-3-tert-butylpiperazin-1-yl]-6-oxo-2-(4-pyridyl)-1H-pyrimidine-5-carbonitrile]	10.5 nM	
CC(C)C[C@H]1CN2CCC[C@H]2CN1c1nc(-c2ccncc2)[nH]c(=O)c1Cl [Compound 184]	170 nM	IC50 (Cdc7/Dbf4): 102 nM; IC50 (Cdc7/ASK [3]): 437 nM
O=c1[nH]c(-c2ccncc2)nc(N2CCNCC2c2ccccc2)c1Cl (stereo not drawn) [Compound 372]	263 nM	
O=c1[nH]c(-c2ccnc(F)c2)nc(N2CCC3CCNCC32)c1Cl (stereo not drawn) [Compound 221]		IC50 (Cdc7/Dbf4): 2.88 nM; EC50 [4]: 1620 nM; EC50 [5]: 562 nM
CCCC1COCCN1c1nc(-c2ccncc2)[nH]c(=O)c1Cl (stereo not drawn) [Compound 366]	60.3 nM	
